Each compound was assayed against T1, M-phase inducer phosphatase 2 (Homo sapiens, UniProt P30305) (assay: Compound was measured for its inhibitory activity against Cell division cycle 25B).
T1 sequence (P30305 whole entry): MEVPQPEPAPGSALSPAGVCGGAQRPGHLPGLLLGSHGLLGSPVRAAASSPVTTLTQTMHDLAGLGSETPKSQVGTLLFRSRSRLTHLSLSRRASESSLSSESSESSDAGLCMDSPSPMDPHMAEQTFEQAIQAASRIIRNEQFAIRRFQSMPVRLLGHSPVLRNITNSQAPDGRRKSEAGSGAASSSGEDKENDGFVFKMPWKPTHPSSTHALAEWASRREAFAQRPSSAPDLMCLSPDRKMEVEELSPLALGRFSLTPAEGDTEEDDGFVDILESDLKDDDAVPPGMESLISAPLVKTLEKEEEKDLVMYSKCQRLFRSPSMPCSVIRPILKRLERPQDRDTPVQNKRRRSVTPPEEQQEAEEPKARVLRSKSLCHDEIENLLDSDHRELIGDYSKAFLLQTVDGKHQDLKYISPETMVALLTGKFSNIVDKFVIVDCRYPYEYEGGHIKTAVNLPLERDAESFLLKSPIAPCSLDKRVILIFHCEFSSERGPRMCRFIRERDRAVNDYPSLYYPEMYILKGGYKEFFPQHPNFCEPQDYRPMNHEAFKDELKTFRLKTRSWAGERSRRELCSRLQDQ

Going from O=C(O)[C@@H]1Cc2cc(I)c(OCc3cccc(C(F)(F)F)c3)c(I)c2CN1C(=O)/C=C/c1ccc(Cl)c(Cl)c1 to O=C(O)[C@@H]1Cc2cc(I)c(OCc3cccc(C(F)(F)F)c3)c(I)c2CN1C(=O)/C=C/c1cccc(Cl)c1, the IC50 falls from 75 µM to 40 µM (1.9-fold).

O=C(O)[C@@H]1Cc2cc(I)c(OCc3ccc(Cl)cc3Cl)c(I)c2CN1C(=O)/C=C/c1ccc(Cl)cc1 and Cc1ccc(/C=C/C(=O)N2Cc3c(cc(I)c(OCc4ccc(Cl)cc4Cl)c3I)C[C@H]2C(=O)O)cc1 are within 1.5-fold of each other in IC50: 35 µM for the first, 27 µM for the second.

O=C(O)[C@@H]1Cc2cc(I)c(OCc3ccc(C(F)(F)F)cc3)c(I)c2CN1C(=O)/C=C/c1ccc(Cl)cc1 and Cc1ccc(/C=C/C(=O)N2Cc3c(cc(I)c(OCc4ccc(C(F)(F)F)cc4)c3I)C[C@H]2C(=O)O)cc1 are within 1.5-fold of each other in IC50: 30 µM for the first, 35 µM for the second.

Compared with O=C(O)[C@@H]1Cc2cc(I)c(OCc3ccccc3F)c(I)c2CN1C(=O)c1cccnc1Cl, O=C(O)[C@@H]1Cc2cc(I)c(OCc3ccc(Cl)cc3Cl)c(I)c2CN1C(=O)c1cccnc1Cl is higher in IC50: 90 µM for the first, > 100 µM for the second. The first is the more potent here.

First: O=C(O)[C@@H]1Cc2cc(I)c(OCCCCl)c(I)c2CN1C(=O)/C(F)=C/c1ccccc1
Second: O=C(O)[C@@H]1Cc2cc(I)c(OCc3ccc(Cl)cc3Cl)c(I)c2CN1C(=O)/C(F)=C/c1ccccc1
The IC50 of the first is 2.8-fold higher: 100 µM for the first, 36 µM for the second.

First: O=C(O)[C@@H]1Cc2cc(I)c(OCc3cccc(C(F)(F)F)c3)c(I)c2CN1C(=O)/C=C/c1ccccc1F
Second: O=C(O)[C@@H]1Cc2cc(I)c(OCc3ccc(C(F)(F)F)cc3)c(I)c2CN1C(=O)/C=C/c1ccccc1F
The IC50 of the first is 1.6-fold lower: 35 µM for the first, 55 µM for the second. The first is the more potent here.

Going from O=C(O)[C@@H]1Cc2cc(I)c(OCc3c(Cl)cccc3Cl)c(I)c2CN1C(=O)CCc1ccccc1 to O=C(O)[C@@H]1Cc2cc(I)c(OCc3ccc(Cl)cc3Cl)c(I)c2CN1C(=O)CCc1ccccc1, the IC50 falls from > 100 µM to 50 µM.

O=C(O)[C@@H]1Cc2cc(I)c(OCCCCl)c(I)c2CN1C(=O)/C=C/c1ccccc1Br and O=C(O)[C@@H]1Cc2cc(I)c(OCCCCl)c(I)c2CN1C(=O)/C=C/c1ccccc1Cl are within 1.5-fold of each other in IC50: 33 µM for the first, 27 µM for the second.

COc1cccc(COc2c(I)cc3c(c2I)CN(C(=O)/C=C/c2ccc([N+](=O)[O-])cc2)[C@H](C(=O)O)C3)c1 and COc1cccc(COc2c(I)cc3c(c2I)CN(C(=O)/C=C/c2ccc(Cl)cc2)[C@H](C(=O)O)C3)c1 are within 1.5-fold of each other in IC50: 59 µM for the first, 75 µM for the second.

Compared with O=C(O)[C@@H]1Cc2cc(I)c(OCc3c(Cl)cccc3Cl)c(I)c2CN1C(=O)/C=C/c1cccc(Cl)c1, O=C(O)[C@@H]1Cc2cc(I)c(OCc3c(Cl)cccc3Cl)c(I)c2CN1C(=O)/C=C/c1cccc(F)c1 is 2.2-fold higher in IC50: 20 µM for the first, 45 µM for the second. The first is the more potent here.

First: O=C(COc1c(I)cc2c(c1I)CN(C(=O)/C=C/c1ccccc1Cl)[C@H](C(=O)O)C2)OCc1ccccc1
Second: O=C(COc1c(I)cc2c(c1I)CN(C(=O)/C=C/c1ccccc1Br)[C@H](C(=O)O)C2)OCc1ccccc1
The IC50 of the first is 1.6-fold higher: 70 µM for the first, 45 µM for the second.

O=C(COc1c(I)cc2c(c1I)CN(C(=O)/C(F)=C/c1ccccc1)[C@H](C(=O)O)C2)OCc1ccccc1 and O=C(COc1c(I)cc2c(c1I)CN(C(=O)/C=C/c1cccc(Br)c1)[C@H](C(=O)O)C2)OCc1ccccc1 are the same in IC50: 90 µM for the first, 90 µM for the second.

O=C(O)[C@@H]1Cc2cc(I)c(OCc3ccc(Cl)cc3Cl)c(I)c2CN1C(=O)/C=C/c1cc(Cl)cc(Cl)c1 and O=C(O)[C@@H]1Cc2cc(I)c(OCc3ccc(Cl)cc3Cl)c(I)c2CN1C(=O)/C=C/c1ccc(Cl)c(Cl)c1 are within 1.5-fold of each other in IC50: 23 µM for the first, 30 µM for the second.

Compared with O=C(O)[C@@H]1Cc2cc(I)c(OCc3ccc(Cl)cc3Cl)c(I)c2CN1C(=O)/C=C/c1ccc([N+](=O)[O-])cc1, O=C(O)[C@@H]1Cc2cc(I)c(OCc3ccc(Cl)cc3Cl)c(I)c2CN1C(=O)/C=C/c1ccc(Br)cc1 is 2-fold lower in IC50: 45 µM for the first, 23 µM for the second.

Going from O=C(O)[C@@H]1Cc2cc(I)c(OCc3ccc(C(F)(F)F)cc3)c(I)c2CN1C(=O)/C=C/c1cccc(F)c1 to O=C(O)[C@@H]1Cc2cc(I)c(OCc3cccc(C(F)(F)F)c3)c(I)c2CN1C(=O)/C=C/c1cccc(F)c1, the IC50 rises from 30 µM to 45 µM (1.5-fold).

Going from O=C(O)[C@@H]1Cc2cc(I)c(OCc3ccc(Cl)cc3Cl)c(I)c2CN1C(=O)/C=C/c1cccc(C(F)(F)F)c1 to O=C(O)[C@@H]1Cc2cc(I)c(OCc3ccc(Cl)cc3Cl)c(I)c2CN1C(=O)/C=C/c1cccc(F)c1, the IC50 rises from 15 µM to 40 µM (2.7-fold). The first is the more potent here.

Compared with O=C(O)[C@@H]1Cc2cc(I)c(OCc3ccc(Cl)cc3Cl)c(I)c2CN1C(=O)/C=C/c1ccc2c(c1)OCO2, O=C(O)[C@@H]1Cc2cc(I)c(OCc3ccc(Cl)cc3Cl)c(I)c2CN1C(=O)/C=C/c1cccc(Br)c1 is 1.5-fold lower in IC50: 60 µM for the first, 40 µM for the second.

Going from O=C(O)C1Cc2cc(I)c(OCc3c(Cl)cccc3Cl)c(I)c2CN1C(=O)C1CCCC1 (centres undefined) to O=C(O)[C@@H]1Cc2cc(I)c(OCc3c(Cl)cccc3Cl)c(I)c2CN1C(=O)c1cccnc1Cl, the IC50 falls from 100 µM to 45 µM (2.2-fold).

Compared with O=C(O)[C@@H]1Cc2cc(I)c(OCc3ccc(C(F)(F)F)cc3)c(I)c2CN1C(=O)/C=C/c1ccc2c(c1)OCO2, O=C(O)[C@@H]1Cc2cc(I)c(OCc3cccc(C(F)(F)F)c3)c(I)c2CN1C(=O)/C=C/c1ccc2c(c1)OCO2 is 2.1-fold higher in IC50: 32 µM for the first, 66 µM for the second. The first is the more potent here.

O=C(O)[C@@H]1Cc2cc(I)c(OCc3c(Cl)cccc3Cl)c(I)c2CN1C(=O)/C=C/c1cccc(C(F)(F)F)c1 and O=C(O)[C@@H]1Cc2cc(I)c(OCc3ccccc3F)c(I)c2CN1C(=O)/C=C/c1cccc(C(F)(F)F)c1 are within 1.5-fold of each other in IC50: 35 µM for the first, 45 µM for the second.

First: Cc1ccc(/C=C/C(=O)N2Cc3c(cc(I)c(OCc4cccc(C(F)(F)F)c4)c3I)C[C@H]2C(=O)O)cc1
Second: O=C(O)[C@@H]1Cc2cc(I)c(OCc3cccc(C(F)(F)F)c3)c(I)c2CN1C(=O)/C=C/c1ccc([N+](=O)[O-])cc1
The IC50 of the first is 1.7-fold lower: 30 µM for the first, 50 µM for the second. The first is the more potent here.

COc1cccc(COc2c(I)cc3c(c2I)CN(C(=O)/C=C/c2ccc4c(c2)OCO4)[C@H](C(=O)O)C3)c1 and COc1cccc(COc2c(I)cc3c(c2I)CN(C(=O)/C=C/c2ccc(C)cc2)[C@H](C(=O)O)C3)c1 are within 1.5-fold of each other in IC50: 58 µM for the first, 62 µM for the second.

First: O=C(O)[C@@H]1Cc2cc(I)c(OCc3cccc(C(F)(F)F)c3)c(I)c2CN1C(=O)c1cccnc1Cl
Second: O=C(O)[C@@H]1Cc2cc(I)c(OCc3cccc(C(F)(F)F)c3)c(I)c2CN1C(=O)CCc1ccccc1
The IC50 of the first is 1.7-fold lower: 30 µM for the first, 50 µM for the second.

C/C(=C\c1ccccc1)C(=O)N1Cc2c(cc(I)c(OCc3ccc(Cl)cc3Cl)c2I)C[C@H]1C(=O)O and O=C(O)[C@@H]1Cc2cc(I)c(OCc3ccc(Cl)cc3Cl)c(I)c2CN1C(=O)/C=C/c1ccccc1Br are within 1.5-fold of each other in IC50: 40 µM for the first, 33 µM for the second.

O=C(O)[C@@H]1Cc2cc(I)c(OCc3ccc(C(F)(F)F)cc3)c(I)c2CN1C(=O)/C=C/c1ccccc1C(F)(F)F and O=C(O)[C@@H]1Cc2cc(I)c(OCc3cccc(C(F)(F)F)c3)c(I)c2CN1C(=O)/C=C/c1ccccc1C(F)(F)F are within 1.5-fold of each other in IC50: 27 µM for the first, 36 µM for the second.

Going from O=C(COc1c(I)cc2c(c1I)CN(C(=O)/C=C/c1ccc(Cl)cc1Cl)[C@H](C(=O)O)C2)OCc1ccccc1 to O=C(COc1c(I)cc2c(c1I)CN(C(=O)/C=C/c1ccc(Br)cc1)[C@H](C(=O)O)C2)OCc1ccccc1, the IC50 rises from 28 µM to 90 µM (3.2-fold). The first is the more potent here.

O=C(O)[C@@H]1Cc2cc(I)c(OCCCCl)c(I)c2CN1C(=O)/C=C/c1ccc(Cl)cc1Cl and O=C(O)[C@@H]1Cc2cc(I)c(OCCCCl)c(I)c2CN1C(=O)/C=C/c1cccc(Br)c1 are within 1.5-fold of each other in IC50: 52 µM for the first, 70 µM for the second.

O=C(O)[C@@H]1Cc2cc(I)c(OCc3ccccc3F)c(I)c2CN1C(=O)CCc1ccccc1 and O=C(O)[C@@H]1Cc2cc(I)c(OCc3ccccc3F)c(I)c2CN1C(=O)/C=C/c1cccc(Cl)c1 are within 1.5-fold of each other in IC50: 80 µM for the first, 60 µM for the second.

Compared with O=C(O)[C@@H]1Cc2cc(I)c(OCc3ccc(Cl)cc3Cl)c(I)c2CN1C(=O)/C=C/c1ccccc1Cl, O=C(O)[C@@H]1Cc2cc(I)c(OCc3ccc(Cl)cc3Cl)c(I)c2CN1C(=O)/C=C/c1cccc(Cl)c1 is 2.3-fold higher in IC50: 15 µM for the first, 35 µM for the second.

O=C(O)[C@@H]1Cc2cc(I)c(OCCCCl)c(I)c2CN1C(=O)/C=C/c1ccc(Br)cc1 and O=C(O)[C@@H]1Cc2cc(I)c(OCc3ccccc3F)c(I)c2CN1C(=O)/C=C/c1ccc(Cl)c(Cl)c1 are within 1.5-fold of each other in IC50: 70 µM for the first, 75 µM for the second.

COc1cc(/C=C/C(=O)N2Cc3c(cc(I)c(OCc4ccc(C(F)(F)F)cc4)c3I)C[C@H]2C(=O)O)cc(OC)c1OC and O=C(O)[C@@H]1Cc2cc(I)c(OCc3ccc(C(F)(F)F)cc3)c(I)c2CN1C(=O)/C=C/c1ccc([N+](=O)[O-])cc1 are within 1.5-fold of each other in IC50: 57 µM for the first, 55 µM for the second.

Compared with O=C(O)[C@@H]1Cc2cc(I)c(OCc3ccccc3F)c(I)c2CN1C(=O)/C=C/c1cccc(F)c1, O=C(O)[C@@H]1Cc2cc(I)c(OCc3cccc(C(F)(F)F)c3)c(I)c2CN1C(=O)/C=C/c1cccc(C(F)(F)F)c1 is 1.5-fold lower in IC50: 75 µM for the first, 50 µM for the second.

For O=C(O)[C@@H]1Cc2cc(I)c(OCc3c(Cl)cccc3Cl)c(I)c2CN1C(=O)/C=C/c1ccc(Cl)c(Cl)c1, the IC50 was 55 µM.

What follows are compounds tested against T2, M-phase inducer phosphatase 2 (Homo sapiens) (UniProt P30305) (assay: Inhibitory activity against Cell division cycle 25B at 100 uM).
T2 sequence (whole entry): T1 sequence (P30305 whole entry)

In order of rising inhibition:
1. N#C/C(=C\c1ccccc1)C(=O)N1Cc2c(cc(I)c(OCCCCl)c2I)C[C@H]1C(=O)O  11%
2. O=C(O)[C@@H]1Cc2cc(I)c(OCc3ccc(Cl)cc3Cl)c(I)c2CN1C(=O)/C=C/c1ccccc1F  32%
3. COc1cccc(COc2c(I)cc3c(c2I)CN(C(=O)/C=C/c2ccccc2F)[C@H](C(=O)O)C3)c1  34%
4. COc1cccc(COc2c(I)cc3c(c2I)CN(C(=O)/C=C/c2cccc(F)c2)[C@H](C(=O)O)C3)c1  41%

Source: ChEMBL document CHEMBL1133317, “The solid phase synthesis of tetrahydroisoquinolines having cdc25B inhibitory activity” (Bioorg Med Chem Lett, 2000)
